The values below come from publication PMC4666032, “KPT-330, a potent and selective exportin-1 (XPO-1) inhibitor, shows antitumor effects modulating the expression of cyclin D1 and survivin in prostate cancer models” (BMC Cancer, 2015).

The assay relates to models of aggressive PCa. Description: In vivo models of aggressive PCa (xenograft not specified). Also noted: species or system mice. The text has this: Male CD1 nude mice (Charles River, Milan, Italy) were maintained under the guidelines established by the University of L’Aquila, Medical School and Science and Technology School Board Regulations. Experiments on animals have been approved by your local IRB in compliance with the Italian government regulation n.116 January 27, 1992 for the use of laboratory animals which is line with ARRIVE guidelines. All mice received subcutaneous flank injections of 1 x 10^6 PC3, DU145 or 22v1 cells. Tumor growth was measured bi-weekly with a Vernier caliper (length x width). Tumor weight was calculated according to the formula: TW (mg) = tumor volume (mm^3) = d2 x D/2, where d and D are the shortest and longest diameters, respectively. The effects of the treatments were examined as previously described. […]
Mice were treated by oral gavage with either vehicle control (Pluronic F-68/PVP-K29/32), KPT330 or KPT251. […] In vivo, combinational studies were evaluated by CalcuSyn (Biosoft). For the calculation of CI, the values of cell kill for a fixed tumor volume were considered (determined by the log cell kill (LCK)). LCK was determined as LCKZ (TKC)/(3.3KTd), where Td represents the mean control group doubling time required to reach a fixed tumor volume, expressed in days, whereas T and C are the same values as described above.

Regarding `O=C(/C=C\n1cnc(-c2cc(C(F)(F)F)cc(C(F)(F)F)c2)n1)NNc1cnccn1` [KPT-330], under “at similar dosage”, the “antitumor effects compared to KPT-251” value is “better antitumor effects”. Also, the “tumor volume relative to docetaxel-treated animals” value (internal control docetaxel, data not shown) is “approximately one-third”.
